The subject of data set [1] is Pseudomonas aeruginosa SR 24. Kind of data set: minimal inhibitory concentration (agar plate two-fold dilution), Pseudomonas aeruginosa SR 24. The data set is classed as cell-based. The procedure: (§1) 3) The said sodium salt (1 g) prepared by neutralizing under sterile condition is dissolved in distilled water for injection (4 g) and administered to a patient suffering from sensitive pseudomonal bacteria twice a day intravenously to treat this infection. The free acid or sodium salt is dissolved in 0.01N-aqueous sodium hydrogen carbonate and tested for minimal inhibitory concentration against gram-negative bacteria according to a method of Japan Society of Chemotherapy on an agar plate by two-fold dilution method.
The minimal inhibitory concentration of Compound (I) where R^1 is 2-(2-amino-4-thiazolyl)-2-(1-carboxy-1-methylethoxyimino)acetamido, R^2 is hydrogen, R^3 is hydrogen, R^4 is 3,4-dihydroxyphenyl, R^5 is methylene, R^6 combined with Y- is negative charge, and X is sulfur against Pseudomonas aeruginosa SR 24 is 0.2 μg/ml. By altering the groups with the following ones to vary the activities as listed below.

Data set [2] deals with Pseudomonas aeruginosa SR 24. Kind of data set: 50% effective dose preventing lethal Pseudomonas aeruginosa SR 24 mouse infection. The data set is classed as in vivo. The text has this:
(§2) The compound is highly safe in the case of intravenous injection to various animals.

Data set [3] relates to mice. Description: safety, intravenous injection in mice. To be noted: up to 1 g/kg. In kind it is in vivo.
Source text: as §2

Data set [4] has as its system Pseudomonas aeruginosa SR 5018. Kind of data set: minimal inhibitory concentration (agar plate two-fold dilution), ofloxacin resistant Pseudomonas aeruginosa SR 5018. The data set is classed as cell-based. To be noted: SR5018. The method, then:
as §1

The subject of data set [5] is Escherichia coli SR 5082. Kind of data set: minimal inhibitory concentration (agar plate two-fold dilution), Escherichia coli SR 5082. Particulars: SR5082. The data set is classed as cell-based. The procedure:
as §1

In data set [6] the test system is various animals. Description: safety, intravenous injection to various animals. In kind it is in vivo.
Source text: as §2

Data set [7] relates to rabbits. In kind it is in vivo. To be noted: up to 1 g/kg.
Source text: as §2

Where [8] appears, read: SR24, Pseudomonas aeruginosa SR 24, Experiment 1, read-out: minimal inhibitory concentration.
[9] abbreviates: ofloxacin resistant Pseudomonas aeruginosa SR 5018, read-out: MIC.

Each structure is given as a SMILES string. In brackets after ≈: the same amount, converted by molar mass. Like-named read-outs stand apart in the source and are kept apart here. Where only a bound is given, the exact number is not on record here.

Consider 16 compounds from patent US5134138A, “Phenacylpyridiniothiocephalosporins” (Shionogi & Co., Ltd., priority 1989, dated 1992).

A word on the ED50: it is the midpoint of the dose-response relation.

`CC(C)(ON=C(C(=O)N[C@@H]1C(=O)N2C(C(=O)[O-])=C(CSc3cc[n+](CC(=O)c4ccc(O)c(O)c4)cc3)C[S+]([O-])[C@H]12)c1csc(N)n1)C(=O)O` (some centres unmarked) [No. 9]: the MIC in data set [1] (Pseudomonas aeruginosa SR 24, listed as representative compound (I)) was 0.1 µg/mL (≈ 0.134 µM); in data set [1] (setting [8]), 0.1 µg/mL (≈ 0.134 µM); in data set [1] (SR24, Pseudomonas aeruginosa SR 24, read-out: MIC), 0.1 µg/mL (≈ 0.134 µM); in data set [4] (setting [9]) it was 0.1 µg/mL (≈ 0.134 µM); in data set [5], 0.2 µg/mL (≈ 0.269 µM). Besides, the “ED50 (50% effective dose preventing lethal infection)” value in data set [2] (Pseudomonas aeruginosa SR 24, mouse infection, listed as Compound (I) where X is sulfinyl) turned out to be 1.35 mg/kg. Moreover, the death entry in data set [3] is “no death”. Further, the “toxic effect as Antabuse-like activity” value in data set [3] was “no death nor toxic effect as Antabuse-like activity”. Besides, the “times activity versus E-1040 (MIC)” value in data set [4] (Pseudomonas aeruginosa) is given as 63 times. Besides, the “times activity versus ceftazidime (MIC)” value in data set [4] (Pseudomonas aeruginosa) is 250 times. Further, the safety result in data set [6] was “highly safe”. In addition, the renal toxicity entry in data set [7] is reported as “did not show renal toxicity”.

For the compound `CC(C)(ON=C(C(=O)N[C@@H]1C(=O)N2C(C(=O)[O-])=C(CSc3cc[n+](CC(=O)c4cc(O)c(O)cc4Cl)cc3)CS[C@H]12)c1csc(N)n1)C(=O)O` [No. 22 (3,4-OH-6-Cl)], in data set [1] (setting [8]), the MIC turned out to be 0.025 µg/mL (≈ 0.0328 µM).

Regarding `CC(C)(ON=C(C(=O)N[C@@H]1C(=O)N2C(C(=O)[O-])=C(C[n+]3ccc4cc(O)c(O)cc4c3)CS[C@H]12)c1csc(N)n1)C(=O)O` [BO-1341, 3-(6,7-dihydroxyisoquinolinio)methyl-7β-(2-(2-aminothiazol-4-yl)-2-(1-carboxy-1-methylethoxyimino)acetamido)-3-cephem-4-carboxylate, reference compound], the MIC in data set [4] (setting [9]) came to 0.4 µg/mL (≈ 0.636 µM); in data set [5], 1.6 µg/mL (≈ 2.55 µM).

`CON=C(C(=O)N[C@@H]1C(=O)N2C(C(=O)[O-])=C(C[N+]34CCC(C(N)=O)(CC3)CC4)CS[C@H]12)c1nsc(N)n1` [E-1040, 3-(4-carbamoylquinuclidinio)methyl-7β-[2-(5-amino-1,2,4-thiadiazol-3-yl)-2-methoxyimino]-acetamido-3-cephem-4-carboxylate, reference compound] gave an MIC in data set [4] (Pseudomonas aeruginosa) of 6.3 µg/mL (≈ 11.4 µM).

On to `CC(C)(ON=C(C(=O)N[C@@H]1C(=O)N2C(C(=O)[O-])=C(CSc3cc[n+](CC(=O)c4cc(O)c(O)c(Cl)c4)cc3)CS[C@H]12)c1csc(N)n1)C(=O)O` [No. 18], for which the MIC in data set [1] (setting [8]) worked out at 0.025 µg/mL (≈ 0.0328 µM).

As to `CC(C(=O)c1ccc(O)c(O)c1)[n+]1ccc(SCC2=C(C(=O)[O-])N3C(=O)[C@@H](NC(=O)C(=NOC(C)(C)C(=O)O)c4csc(N)n4)[C@H]3SC2)cc1` (some centres unmarked) [No. 23], the MIC in data set [1] (setting [8]) was 0.025 µg/mL (≈ 0.0337 µM).

Consider `CC(C)(ON=C(C(=O)N[C@@H]1C(=O)N2C(C(=O)[O-])=C(CSc3cc[n+](CC(=O)c4ccc(O)c(O)c4)cc3)CS[C@H]12)c1csc(N)n1)C(=O)O` [No. 8], for which the MIC in data set [1] (setting [8]) came out at 0.2 µg/mL (≈ 0.274 µM). In addition, the 50% effective dose (ED50) in data set [2] (Pseudomonas aeruginosa, SR24, read-out: ED50 (50% effective dose preventing lethal infection), Pseudomonas aeruginosa SR 24, mouse infection) is 1.35 to 6.27 mg/kg.

Take `CC(C)(C=C(C(=O)N[C@@H]1C(=O)N2C(C(=O)[O-])=C(CSc3cc[n+](CC(=O)c4ccc(O)c(O)c4)cc3)CS[C@H]12)c1csc(N)n1)C(=O)O` [No. 27]: in data set [1] (setting [8]), the MIC was found to be 0.1 µg/mL (≈ 0.14 µM).

In the case of `CC(C)(ON=C(C(=O)N[C@@H]1C(=O)N2C(C(=O)[O-])=C(CSc3cc[n+](CC(=O)c4ccc(O)c(O)c4)c4c3CCC4)CS[C@H]12)c1csc(N)n1)C(=O)O` [No. 25], in data set [1] (setting [8]), the MIC came to 0.05 µg/mL (≈ 0.065 µM).

In the case of `CC(C)(ON=C(C(=O)N[C@@H]1C(=O)N2C(C(=O)[O-])=C(CSc3cc[n+](CC(=O)c4cccc(O)c4O)cc3)CS[C@H]12)c1csc(N)n1)C(=O)O` [No. 7], the MIC in data set [1] (setting [8]) is 0.39 µg/mL (≈ 0.535 µM).

`Cc1cc(O)c(O)cc1C(=O)C[n+]1ccc(SCC2=C(C(=O)[O-])N3C(=O)[C@@H](NC(=O)C(=NOC(C)(C)C(=O)O)c4csc(N)n4)[C@H]3SC2)cc1` [No. 14]: in data set [1] (setting [8]), the MIC was found to be 0.05 µg/mL (≈ 0.0673 µM).

`CON=C(C(=O)N[C@@H]1C(=O)N2C(C(=O)[O-])=C(CSc3cc[n+](CC(=O)c4ccc(O)c(O)c4)cc3)CS[C@H]12)c1csc(N)n1` [No. 5]: the MIC in data set [1] (setting [8]) came out at 0.4 µg/mL (≈ 0.609 µM).

For the compound `CC(=O)Oc1ccc(C(=O)C[n+]2ccc(SCC3=C(C(=O)[O-])N4C(=O)[C@@H](NC(=O)C(=NOC(C)(C)C(=O)O)c5csc(N)n5)[C@H]4SC3)cc2)cc1OC(C)=O` [No. 11], the MIC in data set [1] (setting [8]) was 0.025 µg/mL (≈ 0.0308 µM).

Take `CC(C)(ON=C(C(=O)N[C@@H]1C(=O)N2C(C(=O)[O-])=C(CSc3cc[n+](CC(=O)c4ccc(O)c(O)c4)cc3)CO[C@H]12)c1csc(N)n1)C(=O)O` [No. 13]: the MIC in data set [1] (setting [8]) turned out to be 0.2 µg/mL (≈ 0.281 µM).

On to `CC(C)(O/N=C(\C(=O)N[C@@H]1C(=O)N2C(C(=O)[O-])=C(C[n+]3ccccc3)CS[C@H]12)c1csc(N)n1)C(=O)O` [ceftazidime, reference compound], for which the MIC in data set [4] (Pseudomonas aeruginosa) amounted to 25 µg/mL (≈ 45.7 µM).

With `O=C(Cc1ccccc1)N[C@@H]1C(=O)N2C(C(=O)[O-])=C(CSc3cc[n+](CC(=O)c4ccc(O)c(O)c4)cc3)CS[C@H]12` [No. 1], in data set [1] (setting [8]), the MIC is greater than 100 µg/mL.
